Data as given in PubChem BioAssay AID330 (DTP/NCI, 2004).
“And” between values parts separate entries of the source, which are not always exact repeats. Equal entries are not always repeated. Toxic doses and inconclusive results are not listed. How the source made its calls: active means survival T/C of 150% or more; inactive means T/C below 125% in these data.

System: P388 leukemia ip, CD2F1 mice, survival T/C
Assay: NCI In Vivo Anticancer Drug Screen. Data for tumor model P388 Leukemia (intraperitoneal) in CD2F1 (CDF1) mice
Settings: endpoint: median survival time, higher = longer survival
Method: The antitumor activity of compounds was measured in mice bearing transplantable tumors. Survival or tumor size were measured and the results are expressed as the measurement made in the treated group (T) divided by the measurement made in the vehicle treated control group (C). The tumor model used in this assay is P388 Leukemia (intraperitoneal) in CD2F1 (CDF1) mice

[1] = dose: 50.0 mg/kg/injection, schedule: Q01DX005 (ip), vehicle: Klucel (hydroxypropylcellulose) (HPC)
[2] = dose: 50.0 mg/kg/injection, schedule: Q01DX009 (ip), vehicle: saline with Tween-80
[3] = dose: 100.0 mg/kg/injection, schedule: Q01DX009 (ip), vehicle: saline with Tween-80

Measured: T/C

C=C(C)C(=NC(C)(C)C)N(C(C)C)C(C)C
inactive: dose: 12.5 mg/kg/injection, schedule: Q01DX005 (ip), vehicle: Klucel (hydroxypropylcellulose) (HPC) 102 % of control | dose: 12.5 mg/kg/injection, schedule: Q01DX009 (ip), vehicle: saline with Tween-80 89 % of control | dose: 12.5 mg/kg/injection, schedule: Q01DX009 (ip), vehicle: saline 102 % of control | dose: 25.0 mg/kg/injection, schedule: Q01DX005 (ip), vehicle: Klucel (hydroxypropylcellulose) (HPC) 96 % of control | dose: 25.0 mg/kg/injection, schedule: Q01DX009 (ip), vehicle: saline with Tween-80 97 % of control | dose: 25.0 mg/kg/injection, schedule: Q01DX009 (ip), vehicle: saline 101 % of control | [1] 98 % of control | [2] 100 % of control and 120 % of control | [3] 108 % of control

CC12CC(=O)C3C(CCC4CC(OS(=O)(=O)O)CCC43C)C1CC1OC(=O)C=C12 (stereo not given)
inactive: [1] 98 % of control | dose: 100.0 mg/kg/injection, schedule: Q01DX005 (ip), vehicle: Klucel (hydroxypropylcellulose) (HPC) 100 % of control | dose: 200.0 mg/kg/injection, schedule: Q01DX005 (ip), vehicle: Klucel (hydroxypropylcellulose) (HPC) 94 % of control

O=C1c2ccccc2C(=O)N1O
inactive: dose: 50.0 mg/kg/injection, schedule: Q01DX009 (ip), vehicle: saline 93 % of control | dose: 100.0 mg/kg/injection, schedule: Q01DX009 (ip), vehicle: saline 100 % of control

COc1ccc2ccc(C=O)cc2c1OC
inactive: dose: 25.0 mg/kg/injection, schedule: Q01DX009 (ip), vehicle: other 104 % of control | dose: 50.0 mg/kg/injection, schedule: Q01DX009 (ip), vehicle: other 95 % of control | dose: 100.0 mg/kg/injection, schedule: Q01DX009 (ip), vehicle: other 103 % of control | dose: 200.0 mg/kg/injection, schedule: Q01DX009 (ip), vehicle: other 97 % of control | dose: 400.0 mg/kg/injection, schedule: Q01DX009 (ip), vehicle: other 112 % of control

O=C(O)CCCCCOC(C[N+](=O)[O-])C(Cl)(Cl)Cl (stereo not given)
inactive: [2] 97 % of control | [3] 102 % of control | dose: 200.0 mg/kg/injection, schedule: Q01DX009 (ip), vehicle: saline with Tween-80 111 % of control

CC(/C=N\Nc1ccc(Cl)cc1)=N/NC(N)=S
inactive: dose: 100.0 mg/kg/injection, schedule: Q04DX002 (ip), vehicle: saline 99 % of control | dose: 200.0 mg/kg/injection, schedule: Q04DX002 (ip), vehicle: saline 98 % of control

O=[N+]([O-])c1cc(NC(=S)SCc2ccc3c(c2)OCO3)ccc1Cl
inactive: dose: 50.0 mg/kg/injection, schedule: Q01DX009 (ip), vehicle: suspension in saline 110 % of control | dose: 100.0 mg/kg/injection, schedule: Q01DX009 (ip), vehicle: suspension in saline 114 % of control | dose: 200.0 mg/kg/injection, schedule: Q01DX009 (ip), vehicle: suspension in saline 87 % of control

CC(N)(CCC(=O)O)C(=O)O (stereo not given)
inactive: dose: 50.0 mg/kg/injection, schedule: Q01DX009 (ip), vehicle: Klucel (hydroxypropylcellulose) (HPC) 98 % of control | dose: 100.0 mg/kg/injection, schedule: Q01DX009 (ip), vehicle: Klucel (hydroxypropylcellulose) (HPC) 96 % of control | dose: 200.0 mg/kg/injection, schedule: Q01DX009 (ip), vehicle: Klucel (hydroxypropylcellulose) (HPC) 97 % of control | dose: 400.0 mg/kg/injection, schedule: Q01DX009 (ip), vehicle: Klucel (hydroxypropylcellulose) (HPC) 103 % of control

CC(=NCc1ccccc1)c1c(C)cc(=O)n(-c2ccccc2)c1O
inactive: dose: 60.0 mg/kg/injection, schedule: Q01DX005 (ip), vehicle: saline with Tween-80 96 % of control | dose: 120.0 mg/kg/injection, schedule: Q01DX005 (ip), vehicle: saline with Tween-80 97 % of control | dose: 240.0 mg/kg/injection, schedule: Q01DX005 (ip), vehicle: saline with Tween-80 89 % of control

COC(=O)/C=C(\C(=O)OC)C(C(C)=O)C(C)=NCCN=C(C)C(C(C)=O)/C(=C/C(=O)OC)C(=O)OC.[Cu] (stereo not given)
inactive: dose: 25.0 mg/kg/injection, schedule: Q04DX003 (ip), vehicle: Klucel (hydroxypropylcellulose) (HPC) 98 % of control | dose: 50.0 mg/kg/injection, schedule: Q04DX003 (ip), vehicle: Klucel (hydroxypropylcellulose) (HPC) 103 % of control | dose: 100.0 mg/kg/injection, schedule: Q04DX003 (ip), vehicle: Klucel (hydroxypropylcellulose) (HPC) 107 % of control and 117 % of control

CC(=O)OCC(OC(C)=O)C(Cl)CCl (stereo not given)
inactive: dose: 50.0 mg/kg/injection, schedule: Q01DX005 (ip), vehicle: saline 103 % of control | dose: 100.0 mg/kg/injection, schedule: Q01DX005 (ip), vehicle: saline 101 % of control | dose: 200.0 mg/kg/injection, schedule: Q01DX005 (ip), vehicle: saline 107 % of control
